Results taken from US20080070942A1, “PRAZOLE DERIVATIVES AND SALTS THEREOF AND USE OF SAME” (JIANGSU HANSEN PHARMACEUTICAL CO., LTD., priority 2004, published 2008).
Marks after values point to notes of the source that are not given here.

Tests used:
[1] = tested on: gastric ulcer model induced by anhydrous ethanol in rats; experiment: Gastric ulcer model induced by anhydrous ethanol in rats; type: in vivo, Wistar rat; design: Ulcer area: unit not given beside the values; conditions: for ulcer areas, effect in words: anhydrous ethanol ulcer
Method: Wistar rat, weight: 180-220 g, male, obtained from Institute of Zoology, Chinese Academy of Medical Sciences. Compound (I) and Compound (II) of the present invention and sodium rabeprazole, provided by Jiangsu Hansen Pharmaceutical Co., Ltd. The required concentration is prepared with distilled water and the volume for administration of drug is 10 ml/kg. Methods: 40-hour fasting rats were randomly divided into groups and treated with different doses of sodium rabeprazole, compound (I), compound (II) and distilled water (as control) by gastric perfusion, respectively. After 0.5 hour, each rat was administered with 1 ml anhydrous ethanol and then rats were sacrificed 1 hour later. The stomachs were taken out and injected with 10 ml fix solution. After fixed in 3% formaldehyde solution, the stomachs were dissected and the ulcer areas were measured. The significance test was made by t-programme.

[2] = tested on: ulcer rat models induced by pylori ligation; experiment: Ulcer model induced by pylori ligation in rats; type: in vivo
Method: Methods: Sixty 40 hour-fasting rats were divided into 6 groups according to Table 2. A pylori ligation operation was carried out under the anaesthesia of ether. […] The stomachs were dissected and the number of gastric ulcers was counted. The result was tested by a significance test of t-programme.

[3] = tested on: gastric acid secretion model induced by pylorus ligation in rats; experiment: Effect on gastric acid secretion model induced by pylorus ligation in rats; type: in vivo, Wistar rat; conditions: pylorus-ligated rats, 5 hours after operation
Method: Wistar rat, weight 180-220 g, male, obtained from Institute of Zoology, Chinese Academy of Medical Sciences. Sodium rabeprazole, compound (II) of the present invention and tenatoprazole, provided by Jiangsu Hansen Pharmaceutical Co., Ltd. Added 1 drop of Tween-80 as a solubilizing assistant and prepared the required concentrations with distilled water. Methods: 48-hour fasting rats were divided into groups randomly. Pylon ligation was carried out under ether anaesthesia. […] The rats were sacrificed at 5 hours after the operation and the gastric juice was collected and measured. The content of HCl in gastric juice is determined by titration with 0.1 mol/L NaOH and the significance test was made by t-programme.

[4] = tested on: ulcer model induced by indomethacin in rats; experiment: Gastric ulcer model induced by indomethacin in rats; type: in vivo, Wistar rats
Method: Wistar rats, weight: 180-220 g, same number of male and female, provided by Institute of Zoology, Chinese Academy of Medical Sciences. (Certification of Qualification of Animal: scxk Beijing 2000-0006) 0.5% methylcellulose sodium: 2 g/L NaHCO3 is contained and pH value is adjusted to 9.0 with NaOH. Preparation: The drug was porphyrized and diluted with 0.5% methylcellulose sodium to the required concentration. It must be used up in 30 minutes. Methods: Sixty 48-hour fasting rats were divided into six groups and gastric-perfused with different doses of compound (II), sodium rabeprazole and 0.5% methylcellulose sodium (as control), respectively. After 0.5 hour, 20 mg/kg indomethacin was injected into the abdominal cavities. Six hours later, rats were sacrificed by cervical dislocation and the stomachs were taken out. After injected with 10 ml water, stomachs were then fixed in 3% formaldehyde solution. The hemorrhagic spots were counted. A significance test was carried out by t-programme.

[5] = tested on: gastric ulcer model induced by acetic acid in rats; experiment: Chronic gastric ulcer model induced by acetic acid in rats; type: in vivo; conditions: x ± s
Method: Methods: Abdominal cavities of fasting rats were cut under the anaesthesia of sodium pentobarbital and gently stretched the stomachs. The glandular stomachs near pylons were injected with 20 μl 30% acetic acid and then the abdominal cavities were re-closed. At the day the operation finished, rats were randomly divided into groups and started to be administered with drugs of 10 ml/kg once a day for 10 continuous days. Rats were then sacrificed in the following day when the last drug was administered, and stomachs were taken out and were injected with 10 ml water, and then were put into 3% formaldehyde solution to be fixed for 30 minutes. The stomachs were dissected along their greater curvatures and stretched on a glass plate and the ulcer areas were measured. The significance test was made by t-programme.

in vivo = conditions: dog, 5 mg/kg
Method: Methods: Six healthy male beagle dogs with weight 5.5˜6.7 kg were randomly divided into three groups for triple cross over administration. They were perfused with rabeprazole, tenatoprazole and compound (II) respectively after one-night fasting. The dose of each drug was 5 mg/kg. Each dog was fed with 50 ml water by gastric perfusion after administration of the drug. 2 ml blood was taken respectively from forelimb saphenous vein at 0.25, 0.5, 1, 2, 3, 4, 5, 6, 7, 8, 10, 12 hours after tenatoprazole was administered, at 5, 10, 20, 30, 40, 50, 60, 75, 90, 120, 180 minutes after rabeprazole was administered, and at 1, 2, 3, 3.5, 4, 4.5, 5, 6, 7, 8, 10, 12 hours after compound (II) was administered, and then put each blood sample in each test tube treated with EDTA, then centrifuging for 10 min at 3500 rpm. The upper plasma was removed from the test tube into another test tube containing 50 μl 2% NaOH solution and reserved at −20[…]. The plasma drug concentration was determined by HPLC. Cross-over administration to dogs was performed one week later.
The calculation method for pharmacokinetic parameters: compartment model is estimated by software DAS1.0. […] T½=0.693/λz, Tmax and Cmax are are measured values.

[6] = 3 mg/kg by gastric perfusion 0.5 hour before 1 ml anhydrous ethanol
[7] = 10 mg/kg by gastric perfusion 0.5 hour before 1 ml anhydrous ethanol
[8] = 6.7 μmol/kg through the duodenum
[9] = 20.0 μmol/kg through the duodenum
[10] = 20 μmol/kg once a day for 10 days
[11] = 60 μmol/kg once a day for 10 days

Compound | Ulcer area [1, 6] | Ulcer area [1, 7] | ulcer areas, effect in words [1] | Amount of gastric acid [3, 8] [mmol/stomach] | Amount of gastric juice [3, 8] [ml/stomach] | Amount of gastric acid [3, 9] [mmol/stomach] | Amount of gastric juice [3, 9] [ml/stomach] | Ulcer area [5, 10] [mm^2] | Ulcer area [5, 11] | further results
COCCCOc1ccnc(C[S+]([O-])c2nc3cc(OC(F)F)ccc3[n-]2)c1C.[Na+] (stereo not drawn) [Compound (I)] | 12.1 ± 18.1 | 5.5 ± 9.9 | more significant effect |  |  |  |  |  |  | 
COCCCOc1ccnc(C[S+]([O-])c2nc3ccccc3[nH]2)c1C (stereo not drawn) [Sodium Rabeprazole] | 26.4 ± 20.6 | 11.1 ± 2.7 | reduced | 0.25 ± 0.10 | 4.0 ± 0.7 | 0.17 ± 0.08 | 3.7 ± 0.8 | 6.2 ± 3.5 | 4.8 ± 3.1** mm^2 | No. of ulcers ([2]; 40 μmol/kg through duodenum, pylori ligation, 18 hours, x ± s): 8.9 ± 14.7; Inhibition rate ([2]; 40 μmol/kg, pylori ligation ulcer): 63.2%; ulcers in the rats, effect in words ([2]; pylori ligation ulcer): essentially same function; No. of ulcers ([4]; 40 μmol/kg gastric perfusion, indomethacin 20 mg/kg, x ± s): 3.1 ± 4.6; Inhibition rate ([4]; 40 μmol/kg, indomethacin ulcer): 72.3%; hemorrhagic spots on gastric mucosal induced by indomethacin, effect in words ([4]; gastric perfusion): lower than that of compound (II)
COc1ccc2[nH]c([S+]([O-])Cc3ncc(C)c(OC)c3C)nc2n1 (stereo not drawn) [Tenatoprazole, tenatoprazole] |  |  |  | 0.16 ± 0.06 | 2.8 ± 0.7 | 0.14 ± 0.03 | 2.8 ± 0.5 | 7.6 ± 3.6 | 5.8 ± 3.6* mm^2 | AUC (in vivo; male, beagle, po, AUC): 18000 ng·h/mL; AUC (in vivo; male, beagle, po, AUC^12): 16900 ng·h/mL; Cmax (in vivo; male, beagle, po, Cmax): 4280 ng/mL; MRT (in vivo; male, beagle, po, MRT): 5.4 h; half-life (in vivo; male, beagle, po, T1/2): 3.74 h
COCCCOc1ccnc(C[S+]([O-])c2nc3ccccc3[nH]2)c1C (stereo not drawn) [rabeprazole] |  |  |  |  |  |  |  |  |  | half life (in vivo): less than half hour
